Assay results reported in patent publication US11771662B2, “Analgesic formulation for control of pain in dogs” (Kansas State University Research Foundation, priority 2017, dated 2023).
Where two headings read alike, the source gives them in different places.

What was measured:
[1] = Plasma methadone, naltrexone and naltrexone metabolites, multiple oral doses (Example III); type: in vivo, dog; details: multiple oral doses of methadone/fluconazole/naltrexone formulation
Excerpt: Twelve healthy Beagle dogs were divided into two groups of 6 each in a parallel study design. […] Group 1 simulated a patient dropped off the night before surgery, while Group 2 simulated a patient dropped off in the morning for same day early afternoon surgery. Rectal temperature was monitored as a marker of central opioid effects throughout the study and von Frey thresholds were obtained to assess the antinociceptive effects.

[2] = Plasma methadone, fluconazole, naltrexone and naltrexone metabolite concentrations (Example IV)
Excerpt: Anesthesia was monitored by licensed veterinary technicians.

[3] = group administered naltrexone 0.25 mg/kg PO with methadone and fluconazole
Excerpt: (§1) Twelve healthy Beagle dogs were divided into two groups of 6 each in a parallel study design. […] Rectal temperature was monitored as a marker of central opioid effects throughout the study.

[4] = system: healthy Beagle dogs; assay: Rectal temperature as marker of central opioid effects, methadone/fluconazole with or without naltrexone (Example II); type: in vivo, dog; details: naltrexone 0.25 mg/kg PO added to methadone 1 mg/kg and fluconazole 5 mg/kg PO
Excerpt: as §1

O=C(O)[C@H]1O[C@@H](Oc2ccc3c4c2O[C@H]2C(=O)CC[C@@]5(O)[C@@H](C3)N(CC3CC3)CC[C@]425)[C@H](O)[C@@H](O)[C@@H]1O [naltrexone glucuronide]
Plasma detection of analyte [1]: detected in both groups | Plasma detection of analyte ([2]; oral methadone groups): measured in most of the samples | Plasma detection of analyte [3]: detected

Oc1ccc2c3c1O[C@H]1[C@H](O)CC[C@@]4(O)[C@@H](C2)N(CC2CC2)CC[C@]314 [β-naltrexol]
Highest measured plasma concentration ([2]; oral methadone groups): 1.7 ng/mL

O=C1CC[C@@]2(O)[C@H]3Cc4ccc(O)c5c4[C@@]2(CCN3CC2CC2)[C@H]1O5 [naltrexone]
Effect of addition of naltrexone on central opioid effects of methadone with fluconazole [4]: did not affect the central opioid effects | Plasma detection of analyte relative to LOQ of the assay (1 ng/mL) [1]: rarely detected above the LOQ | Plasma detection of analyte ([2]; any group): not detected in any plasma sample from any group | Plasma detection of analyte relative to LOQ of the assay (1 ng/mL) [3]: rarely detected above the LOQ
